In ChEMBL document CHEMBL1201862, “PubChem BioAssay data set” (2004):
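Results reflect a 48-hour exposure of cells in 96-well plates to compound at five concentrations. The concentration for 50% growth inhibition is given as GI50.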 Active and inactive are the calls of the source. Cut-off read from the data, not from the text of the source: active = GI50 up to about 1.1 µM and inactive = higher.

Legend:
Experiment in all cases: DTP human tumour cell line panel, 48 h
[1] = system: OVCAR-8
[2] = system: MDA-MB-435
[3] = system: SK-MEL-28
[4] = system: RPMI-8226
[5] = system: T47D
[6] = system: SK-MEL-2
[7] = system: COLO 205
[8] = system: UACC-257
[9] = system: SR
[10] = system: MDA-MB-231
[11] = system: DU-145
[12] = system: HT-29
[13] = system: SNB-75
[14] = system: SF-268
[15] = system: NCI-H522
[16] = system: 786-0
[17] = system: K562
[18] = system: HOP-92
[19] = system: OVCAR-5
[20] = system: UACC-62

Measured: GI50

O=C1/C(=C\c2ccc([N+](=O)[O-])o2)SC2NC(COc3ccc(Cl)cc3)=NN12 (stereo not drawn)
inactive: [1] 3.18 µM | [2] 4.2 µM | [3] 4.17 µM | [4] 3.21 µM | [5] 1.79 µM | [6] 18.9 µM | [7] 3.37 µM | [8] 5.09 µM | [9] 3.47 µM | [10] 3.31 µM | [11] 12.9 µM | [12] 6.05 µM | [13] 15.5 µM | [14] 3.48 µM | [15] 2.22 µM | [16] 3.4 µM | [17] 2.99 µM | [18] 2.09 µM | [19] 21.2 µM

COc1cccc(N2N=C3c4ccccc4-n4c(nc5ccccc54)C3C2N)c1 (stereo not drawn)
inactive: [1] > 100 µM | [2] 62.8 µM | [3] > 100 µM | [4] > 100 µM | [5] > 100 µM | [6] > 100 µM | [7] > 100 µM | [8] > 100 µM | [9] 86.5 µM | [10] 92.3 µM | [11] > 100 µM | [20] > 100 µM | [12] > 100 µM | [13] > 100 µM | [14] > 100 µM | [15] > 100 µM | [16] > 100 µM | [18] > 100 µM | [19] 47.2 µM

N#Cc1cc2c(cc1C#N)SCCSCCCSCCS2
inactive: [1] 12.2 µM | [2] > 100 µM | [3] > 100 µM | [4] > 100 µM | [5] 32.4 µM | [6] 17.8 µM | [7] > 84.3 µM | [8] > 87.9 µM | [9] 36.4 µM | [10] 10 µM | [11] 56.5 µM | [20] 9.93 µM | [12] > 100 µM | [13] 4.61 µM | [14] 10.3 µM | [15] 25.8 µM | [16] 5.09 µM | [17] > 100 µM | [18] 2.49 µM | [19] > 72.3 µM

N#Cc1nc(-c2cc([N+](=O)[O-])cc([N+](=O)[O-])c2)oc1N
inactive: [1] > 10 µM | [2] > 10 µM | [3] > 10 µM | [4] > 10 µM | [5] > 10 µM | [7] > 10 µM | [8] > 10 µM | [9] > 10 µM | [10] > 10 µM | [11] > 10 µM | [20] > 10 µM | [12] > 10 µM | [13] > 10 µM | [14] > 10 µM | [15] > 10 µM | [16] > 10 µM | [17] > 10 µM | [18] > 10 µM

COc1cc(C(=O)OC2CC(C)=CC[C@@]3(C)CC[C@](O)(C(C)C)C23)ccc1O (stereo partly drawn)
inactive: [1] 18.2 µM | [2] 40.5 µM | [3] 30.3 µM | [4] 25.6 µM | [5] 22.3 µM | [6] 16.4 µM | [7] 20 µM | [8] 15.5 µM | [9] 25.5 µM | [10] 15 µM | [11] 17.9 µM | [12] 15.9 µM | [13] 18.7 µM | [14] 19.5 µM | [15] 14.3 µM | [16] 17.3 µM | [17] 17.4 µM | [18] 16.3 µM | [19] 18 µM

CC(C)C1(NC(=O)C2CC3c4cccc5[nH]cc(c45)CC3N(C)C2)OC2(O)C3CCCN3C(=O)C(Cc3ccccc3)N2C1=O (stereo not drawn)
inactive: [1] 42.4 µM | [2] 19.4 µM | [3] 24.9 µM | [4] 4.44 µM | [5] 11.9 µM | [6] 29.2 µM | [7] 14.2 µM | [8] 48.1 µM | [9] 12.9 µM | [10] 17.7 µM | [11] 51.2 µM | [20] 65.8 µM | [12] 11.6 µM | [13] 6.71 µM | [14] > 100 µM | [15] 38.9 µM | [16] 36.7 µM | [18] 18.6 µM | [19] > 100 µM

CCCCCC[C@H]([C@H](C)O)n1cnc2c(N)ncnc21
inactive: [1] > 100 µM | [2] > 100 µM | [3] 49.3 µM | [4] > 100 µM | [5] > 100 µM | [6] > 100 µM | [7] > 100 µM | [8] > 100 µM | [9] > 100 µM | [10] > 100 µM | [11] > 100 µM | [20] > 100 µM | [12] > 100 µM | [13] 62.7 µM | [14] > 100 µM | [16] > 100 µM | [17] > 100 µM | [18] > 100 µM | [19] > 100 µM

Cc1cc(C)c(O)c(CN2CCN(C(C)C)CCN(C(C)C)CC2)c1
inactive: [1] 22.2 µM | [2] 18 µM | [3] 24.7 µM | [4] 21.9 µM | [5] 22 µM | [6] 37.8 µM | [7] 18.6 µM | [8] 18.5 µM | [9] 17.9 µM | [10] 48.3 µM | [11] 85.7 µM | [20] 27 µM | [13] 33.7 µM | [14] 54.3 µM | [15] 16.1 µM | [16] 42.9 µM | [17] 17.9 µM | [18] 13.7 µM | [19] 18.7 µM

CSc1nc(SC)c2c(C)cn(C3OC(C)C(O)C(O)C3O)c2n1 (stereo not drawn)
inactive: [1] 74.6 µM | [2] 40 µM | [3] 84.3 µM | [4] 42.4 µM | [5] 34.1 µM | [6] 73.5 µM | [7] 86.7 µM | [9] 33.3 µM | [10] 52.7 µM | [11] 62.5 µM | [20] 76.6 µM | [12] 53.7 µM | [13] 52.6 µM | [14] 95.7 µM | [15] 96.2 µM | [16] > 100 µM | [18] 32.6 µM | [19] > 100 µM

Nc1ncnc2c1ncn2[C@H]1C=C[C@@H](NO)C1
inactive: [1] > 100 µM | [2] > 100 µM | [3] > 100 µM | [4] > 100 µM | [5] > 100 µM | [6] > 100 µM | [7] > 100 µM | [8] > 100 µM | [9] > 100 µM | [10] > 100 µM | [11] > 100 µM | [20] > 100 µM | [13] > 100 µM | [14] > 100 µM | [15] > 100 µM | [16] > 100 µM | [17] > 100 µM | [18] > 100 µM | [19] > 100 µM

CN(C)c1nc2oc(-c3ccccc3)c(-c3ccccc3)c2c2nnnn12
inactive: [1] > 100 µM | [2] > 100 µM | [3] > 100 µM | [4] > 100 µM | [5] > 100 µM | [7] > 100 µM | [8] > 100 µM | [9] > 100 µM | [10] > 100 µM | [11] > 100 µM | [20] > 100 µM | [12] > 100 µM | [13] 41.1 µM | [14] > 100 µM | [15] > 100 µM | [16] > 100 µM | [17] > 100 µM | [18] > 100 µM | [19] > 100 µM
